Data published in ChEMBL document CHEMBL1909046, “DrugMatrix in vitro pharmacology data”.
pIC50, pKi: −log10 of the molar value.

Tests used:
[1] = target: Aldo-keto reductase family 1 member B1 (Rattus norvegicus, UniProt P07943); assay: biochemical; format: tissue-based, Lens of camera-type eye;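 also: inhibition of aldose reductase enzyme activity, measured with DL-glyceraldehyde as the substrate; in other assays of this panel Not Active means under 50% inhibition at 10 µM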
[2] = target: T1, Type-2 angiotensin II receptor (Homo sapiens, UniProt P50052); format: cell-based; conditions: cho-k1; also: in other assays of this panel Not Active means under 50% inhibition at 10 µM
T1 sequence (P50052 whole entry): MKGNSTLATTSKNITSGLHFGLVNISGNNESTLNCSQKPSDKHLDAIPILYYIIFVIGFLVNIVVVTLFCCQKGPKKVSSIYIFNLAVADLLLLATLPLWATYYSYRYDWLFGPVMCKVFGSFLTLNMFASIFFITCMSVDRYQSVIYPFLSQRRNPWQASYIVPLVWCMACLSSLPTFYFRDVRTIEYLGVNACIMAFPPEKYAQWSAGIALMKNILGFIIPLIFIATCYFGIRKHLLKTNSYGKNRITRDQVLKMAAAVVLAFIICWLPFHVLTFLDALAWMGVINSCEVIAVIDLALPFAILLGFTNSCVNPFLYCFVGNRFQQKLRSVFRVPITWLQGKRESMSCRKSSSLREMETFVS

[3] = target: T2, Substance-K receptor (Homo sapiens, UniProt P21452); format: cell membranes, CHO, Membrane; conditions: for IC50: cho; as to all read-outs here: in other assays of this panel Not Active means under 50% inhibition at 10 µM
T2 sequence (P21452 whole entry): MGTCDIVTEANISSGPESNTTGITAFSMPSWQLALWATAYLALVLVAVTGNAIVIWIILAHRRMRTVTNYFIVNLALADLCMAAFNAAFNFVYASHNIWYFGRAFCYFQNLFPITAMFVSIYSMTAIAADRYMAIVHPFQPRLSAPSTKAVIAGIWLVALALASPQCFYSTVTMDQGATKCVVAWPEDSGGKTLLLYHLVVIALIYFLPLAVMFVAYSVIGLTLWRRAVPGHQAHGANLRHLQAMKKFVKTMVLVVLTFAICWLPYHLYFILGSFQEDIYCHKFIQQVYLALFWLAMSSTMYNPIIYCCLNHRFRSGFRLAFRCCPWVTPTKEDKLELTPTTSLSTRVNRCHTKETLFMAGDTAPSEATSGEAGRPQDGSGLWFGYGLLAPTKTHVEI

[4] = target: T3, Cholecystokinin receptor type A (Homo sapiens, UniProt P32238); format: cell membranes, Membrane; conditions: 1321-n1; also: in other assays of this panel Not Active means under 50% inhibition at 10 µM
T3 sequence (P32238 whole entry): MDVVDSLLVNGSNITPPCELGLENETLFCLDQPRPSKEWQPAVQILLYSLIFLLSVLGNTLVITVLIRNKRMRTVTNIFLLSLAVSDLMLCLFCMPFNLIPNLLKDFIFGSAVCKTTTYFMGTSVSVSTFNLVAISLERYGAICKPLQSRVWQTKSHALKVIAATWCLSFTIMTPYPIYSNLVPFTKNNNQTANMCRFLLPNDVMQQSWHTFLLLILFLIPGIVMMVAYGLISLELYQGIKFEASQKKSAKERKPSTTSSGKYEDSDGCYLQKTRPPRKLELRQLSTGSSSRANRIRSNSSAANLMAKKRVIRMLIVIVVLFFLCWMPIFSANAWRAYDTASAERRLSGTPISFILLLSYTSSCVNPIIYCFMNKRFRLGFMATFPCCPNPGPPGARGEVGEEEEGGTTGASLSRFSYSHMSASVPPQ

[5] = target: Insulin receptor (Rattus norvegicus, UniProt P15127); format: cell membranes, Wistar, Liver, Membrane; also: in other assays of this panel Not Active means under 50% inhibition at 10 µM
Sequence of Insulin receptor (P15127 27-759 limits assumed): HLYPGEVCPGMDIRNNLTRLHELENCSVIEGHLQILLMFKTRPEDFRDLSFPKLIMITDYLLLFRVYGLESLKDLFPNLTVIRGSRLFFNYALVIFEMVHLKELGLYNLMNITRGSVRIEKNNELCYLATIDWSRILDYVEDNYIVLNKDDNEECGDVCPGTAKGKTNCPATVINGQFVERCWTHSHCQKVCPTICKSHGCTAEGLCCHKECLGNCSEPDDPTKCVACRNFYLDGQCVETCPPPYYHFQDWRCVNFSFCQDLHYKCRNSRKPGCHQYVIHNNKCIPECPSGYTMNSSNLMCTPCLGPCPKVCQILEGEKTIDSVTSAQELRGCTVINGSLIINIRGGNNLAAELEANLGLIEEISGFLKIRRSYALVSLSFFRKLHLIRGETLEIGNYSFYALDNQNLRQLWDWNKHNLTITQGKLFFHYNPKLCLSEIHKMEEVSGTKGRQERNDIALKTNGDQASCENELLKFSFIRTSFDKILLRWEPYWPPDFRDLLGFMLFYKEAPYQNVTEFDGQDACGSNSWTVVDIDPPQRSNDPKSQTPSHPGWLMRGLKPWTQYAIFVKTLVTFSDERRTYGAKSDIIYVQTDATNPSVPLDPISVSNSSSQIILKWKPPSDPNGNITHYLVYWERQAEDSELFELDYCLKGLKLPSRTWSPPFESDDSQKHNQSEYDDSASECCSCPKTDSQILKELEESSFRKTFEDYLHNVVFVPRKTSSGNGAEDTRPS
Sequence of Insulin receptor (P15127 764-1383 limits assumed): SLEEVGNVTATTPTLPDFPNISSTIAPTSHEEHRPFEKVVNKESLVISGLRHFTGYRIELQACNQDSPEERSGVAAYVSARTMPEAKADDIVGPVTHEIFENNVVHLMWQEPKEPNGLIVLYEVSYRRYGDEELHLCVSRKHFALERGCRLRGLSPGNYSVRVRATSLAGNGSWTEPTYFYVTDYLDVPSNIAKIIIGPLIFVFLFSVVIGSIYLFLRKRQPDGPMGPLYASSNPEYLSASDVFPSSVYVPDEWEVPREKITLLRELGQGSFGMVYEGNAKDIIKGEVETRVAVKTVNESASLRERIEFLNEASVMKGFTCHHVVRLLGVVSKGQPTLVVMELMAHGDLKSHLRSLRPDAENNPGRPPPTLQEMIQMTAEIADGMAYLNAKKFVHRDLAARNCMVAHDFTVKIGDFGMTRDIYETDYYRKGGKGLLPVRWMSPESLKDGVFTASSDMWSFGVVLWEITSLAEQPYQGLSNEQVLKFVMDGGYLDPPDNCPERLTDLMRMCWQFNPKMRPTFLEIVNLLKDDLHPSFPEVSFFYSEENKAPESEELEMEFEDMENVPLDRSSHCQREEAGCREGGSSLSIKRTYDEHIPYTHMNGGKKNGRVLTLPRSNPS

[6] = target: Melanocortin receptor 4 (Homo sapiens, UniProt P32245); format: cell membranes, Membrane; conditions: hek293; also: in other assays of this panel Not Active means under 50% inhibition at 10 µM
Sequence of Melanocortin receptor 4 (P32245 whole entry): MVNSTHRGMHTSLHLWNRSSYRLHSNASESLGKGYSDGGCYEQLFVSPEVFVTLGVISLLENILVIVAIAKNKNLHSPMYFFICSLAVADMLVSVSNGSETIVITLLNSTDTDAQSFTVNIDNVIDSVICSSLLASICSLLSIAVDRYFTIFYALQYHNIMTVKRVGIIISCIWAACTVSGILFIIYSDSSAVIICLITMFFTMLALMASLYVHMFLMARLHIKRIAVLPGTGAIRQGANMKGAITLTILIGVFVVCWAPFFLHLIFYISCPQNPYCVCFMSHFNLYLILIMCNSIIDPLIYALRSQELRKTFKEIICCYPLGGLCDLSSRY

[7] = target: Mu-type opioid receptor (Homo sapiens, UniProt P35372); assay: DRUGMATRIX: Opiate mu (OP3, MOP) radioligand binding (ligand: [3H] Diprenorphine); format: cell membranes, CHO-K1, Membrane; conditions: cho-k1; Not Active = under 50% inhibition at 10 µM
Sequence of Mu-type opioid receptor (P35372 whole entry): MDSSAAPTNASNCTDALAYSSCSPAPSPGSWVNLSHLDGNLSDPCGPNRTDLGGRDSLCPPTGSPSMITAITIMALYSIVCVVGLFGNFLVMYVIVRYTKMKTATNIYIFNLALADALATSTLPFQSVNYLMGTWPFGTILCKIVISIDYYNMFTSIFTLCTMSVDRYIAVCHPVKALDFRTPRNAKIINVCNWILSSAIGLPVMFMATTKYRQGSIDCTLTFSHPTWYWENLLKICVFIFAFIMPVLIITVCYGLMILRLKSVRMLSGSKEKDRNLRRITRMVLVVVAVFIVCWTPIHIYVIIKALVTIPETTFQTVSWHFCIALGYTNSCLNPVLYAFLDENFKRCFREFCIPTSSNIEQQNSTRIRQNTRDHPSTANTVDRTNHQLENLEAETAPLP

[8] = target: Cytochrome P450 2D6 (Homo sapiens, UniProt P10635); conditions: bti-tn-5b1-4; also: in other assays of this panel Not Active means under 50% inhibition at 10 µM
Sequence of Cytochrome P450 2D6 (P10635 whole entry): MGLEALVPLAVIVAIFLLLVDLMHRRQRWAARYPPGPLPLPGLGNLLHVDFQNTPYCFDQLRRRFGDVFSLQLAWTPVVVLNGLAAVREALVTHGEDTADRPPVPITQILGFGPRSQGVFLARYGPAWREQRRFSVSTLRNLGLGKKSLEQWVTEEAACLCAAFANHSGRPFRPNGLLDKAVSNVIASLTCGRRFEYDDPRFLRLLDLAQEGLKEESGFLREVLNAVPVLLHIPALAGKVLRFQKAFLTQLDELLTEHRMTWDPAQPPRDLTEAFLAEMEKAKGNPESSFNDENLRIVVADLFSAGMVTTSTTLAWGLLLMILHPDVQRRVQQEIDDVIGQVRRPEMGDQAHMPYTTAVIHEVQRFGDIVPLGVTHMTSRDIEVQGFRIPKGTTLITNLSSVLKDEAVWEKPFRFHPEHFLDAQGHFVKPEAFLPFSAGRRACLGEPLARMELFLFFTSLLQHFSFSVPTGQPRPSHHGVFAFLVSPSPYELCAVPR

SMILES	IC50 [1]	IC50 [2]	IC50 [3]	IC50 [4]	IC50 [5]	IC50 [6]	IC50 [7]	IC50 [8]	Ki [8]	pIC50 ([3]; read-out: IC50)	pKi ([3]; read-out: Ki)
CNC[C@H](O)c1ccc(O)c(O)c1 [EPINEPHRINE]	Not Active	Not Active	Not Active	Not Active	Not Active	Not Active	Not Active	Not Active	Not Active	–	–
COc1ccc(C[C@H](N)C(=O)N[C@H]2[C@@H](O)[C@H](n3cnc4c(N(C)C)ncnc43)O[C@@H]2CO)cc1 [PUROMYCIN]	Not Active	Not Active	Not Active	Not Active	Not Active	Not Active	Not Active	Not Active	Not Active	–	–
OC[C@H]1OC2C3[C@@H](CO)OC(O[C@H]4[C@H](O)[C@@H](O)[C@@H](O[C@H]5[C@H](O)[C@@H](O)[C@@H](O[C@H]6[C@H](O)[C@@H](O)[C@@H](O[C@H]7[C@H](O)[C@@H](O)[C@@H](O[C@H]8[C@H](O)[C@@H](O)[C@@H](O[C@H]9[C@H](O)[C@@H](O)C(OC1[C@H](O)[C@H]2O)O[C@@H]9CO)O[C@@H]8CO)O[C@@H]7CO)O[C@@H]6CO)O[C@@H]5CO)O[C@@H]4CO)[C@H](O)[C@H]3O	Not Active	Not Active	Not Active	Not Active	Not Active	Not Active	Not Active	Not Active	Not Active	–	–
NC(N)=Nc1nc(CSCCC(N)=NS(N)(=O)=O)cs1 [FAMOTIDINE]	Not Active	Not Active	Not Active	Not Active	Not Active	Not Active	Not Active	Not Active	Not Active	–	–
C[N+](C)(C)CCOP(=O)([O-])OC[C@H](O)CO	Not Active	Not Active	Not Active	Not Active	Not Active	Not Active	Not Active	Not Active	Not Active	–	–
COc1cc(/C=C/C(=O)O)ccc1O [FERULATE]	Not Active	Not Active	Not Active	Not Active	Not Active	Not Active	Not Active	Not Active	Not Active	–	–
NC(=O)NC(=O)Cc1ccccc1 [PHENACEMIDE]	Not Active	Not Active	Not Active	Not Active	Not Active	Not Active	Not Active	Not Active	Not Active	–	–
NC(=O)CN1CCCC1=O	Not Active	Not Active	Not Active	Not Active	Not Active	Not Active	Not Active	Not Active	Not Active	–	–
CC(C)Cn1cnc2c(N)nc3ccccc3c21 [IMIQUIMOD]	Not Active	Not Active	Not Active	Not Active	Not Active	Not Active	Not Active	Not Active	Not Active	–	–
CCO [ALCOHOL]	Not Active	Not Active	Not Active	Not Active	Not Active	Not Active	Not Active	Not Active	Not Active	–	–
C[C@H](C(=O)O)c1ccc2oc(-c3ccc(F)cc3)nc2c1 [FLUNOXAPROFEN]	Not Active	Not Active	Not Active	Not Active	Not Active	Not Active	Not Active	Not Active	Not Active	–	–
O=C(O)c1ccccc1 [BENZOIC ACID]	Not Active	Not Active	Not Active	Not Active	Not Active	Not Active	Not Active	Not Active	Not Active	–	–
CN(CCOc1ccc(C[C@H](Nc2ccccc2C(=O)c2ccccc2)C(=O)O)cc1)c1ccccn1	Not Active	Not Active	–	Not Active	Not Active	Not Active	Not Active	Not Active	Not Active	4.84	5.32
O=c1[nH]cnc2c1ncn2[C@H]1CC[C@@H](CO)O1 [DIDANOSINE]	Not Active	Not Active	Not Active	Not Active	Not Active	Not Active	Not Active	Not Active	Not Active	–	–
CC(C)(c1ccc(O)cc1)c1ccc(O)cc1 [BISPHENOL A]	Not Active	Not Active	Not Active	Not Active	Not Active	Not Active	Not Active	Not Active	Not Active	–	–
C[C@]12CC[C@@H](O)C[C@@H]1CC[C@@H]1[C@@H]2CC[C@]2(C)C(=O)CC[C@@H]12 [ANDROSTERONE]	Not Active	Not Active	Not Active	Not Active	Not Active	Not Active	Not Active	Not Active	Not Active	–	–
CC12CCC(CC1)C(C)(C)O2 [EUCALYPTOL]	Not Active	Not Active	Not Active	Not Active	Not Active	Not Active	Not Active	Not Active	Not Active	–	–
Nc1nc(N)c2nc(CNc3ccc(C(=O)N[C@@H](CCC(=O)O)C(=O)O)cc3)cnc2n1 [AMINOPTERIN]	Not Active	Not Active	Not Active	Not Active	Not Active	Not Active	Not Active	Not Active	Not Active	–	–
COc1ccccc1OCCNCC(O)COc1cccc2[nH]c3ccccc3c12 (configuration not stated) [CARVEDILOL]	Not Active	Not Active	Not Active	Not Active	Not Active	Not Active	Not Active	Not Active	Not Active	–	–
CCN1CCN(c2cc3c(cc2F)c(=O)c(C(=O)O)cn3C2CC2)CC1 [ENROFLOXACIN]	Not Active	Not Active	Not Active	Not Active	Not Active	Not Active	Not Active	Not Active	Not Active	–	–
CC(C)Cc1ccc([C@H](C)C(=O)O)cc1 [DEXIBUPROFEN]	Not Active	Not Active	Not Active	Not Active	Not Active	Not Active	Not Active	Not Active	Not Active	–	–
CO[C@H]1O[C@@H]2O[C@@]3(C)CC[C@H]4[C@H](C)CC[C@@H]([C@H]1C)[C@@]24OO3	Not Active	Not Active	Not Active	Not Active	Not Active	Not Active	Not Active	Not Active	Not Active	–	–
Nc1ccc(C(=O)O)c(O)c1 [AMINOSALICYLIC ACID]	Not Active	Not Active	Not Active	Not Active	Not Active	Not Active	Not Active	Not Active	Not Active	–	–
Nc1nc(F)nc2c1ncn2[C@@H]1O[C@H](CO)[C@@H](O)[C@@H]1O [FLUDARABINE]	Not Active	Not Active	Not Active	Not Active	Not Active	Not Active	Not Active	Not Active	Not Active	–	–
